In patent US9491944B2, “Pesticidal compositions and related methods” (DOW AGROSCIENCES LLC, priority 2013, dated 2016):

Key:
[1] = test system: Sweetpotato Whitefly-Crawler (WF) (Bemisia tabaci) (BEMITA); assay: Insecticidal test for Sweetpotato Whitefly-crawler (WF) in foliar spray assay on cotton plants; format: in vivo; settings: 216 h, 200 ppm foliar spray on cotton plants, graded after 9 days, Abbott corrected % control, read-out: WF % Control (or Mortality) rating
Description: Insecticidal Test for Sweetpotato Whitefly-Crawler (WF) (Bemisia tabaci) (BEMITA) in Foliar Spray Assay
Cotton plants (Gossypium hirsutum) grown in 3-inch pots, with 1 small (4-5 cm) true leaves, were used as test substrate. The plants were infested with 200-400 whitefly eggs 4-5 days prior to chemical application. Four pots with individual plants were used for each treatment. Test compounds (2 mg) were dissolved in 1 mL of acetone solvent, forming stock solutions of 2000 ppm test compound. The stock solutions were diluted 10× with 0.025% Tween 20 in H2O (diluents) to obtain the solution at 200 ppm test compound. A hand-held aspirator-type sprayer was used for spraying a solution to both sides of cotton leaves until runoff. Reference plants (solvent check) were sprayed with the diluent only containing 10% by volume of acetone solvent. Treated plants were held in a holding room for 9 days at approximately 25° C. and ambient relative humidity (RH) prior to grading. Evaluation was conducted by counting the number of live 3-4 nymph stage per plant under a microscope. Percent control was measured by using Abbott's correction formula (W. S. Abbott, “A Method of Computing the Effectiveness of an Insecticide,” J. Econ. Entomol. 18 (1925), pp. 265-267) as follows. Corrected % Control=100*(X−Y)/X
X=No. of live nymphs on solvent check plants and
Y=No. of live nymphs on treated plants.
Biological Data for Green Peach Aphid (MYZUPE) and Sweetpotato Whitefly-crawler (WF) (BEMITA)” (see Table section).
(§1) The mortality efficiency of the pesticidal compounds against GPA and WF insects was determined after treatment.

[2] = test system: Green Peach Aphid (Myzus persicae) (GPA) (MYZUPE); assay: Bioassay for Green Peach Aphid (GPA) foliar spray on cabbage seedlings; format: in vivo; settings: 72 h, 200 ppm foliar spray on cabbage seedlings, graded after three days, Abbott corrected % control, read-out: GPA % Control (or Mortality) rating
Description: Bioassay for Green Peach Aphid (Myzus persicae) (GPA) (MYZUPE)
Cabbage seedlings grown in 3-inch pots, with 2-3 small (3-5 cm) true leaves, were used as test substrate. The seedlings were infested with 20-50 GPA (wingless adult and nymph stages) one day prior to chemical application. Four pots with individual seedlings were used for each treatment. Test compounds (2 mg) were dissolved in 2 mL of acetone/methanol (1:1) solvent, forming stock solutions of 1000 ppm test compound. The stock solutions were diluted 5× with 0.025% Tween 20 in H2O to obtain the solution at 200 ppm test compound. A hand-held aspirator-type sprayer was used for spraying a solution to both sides of cabbage leaves until runoff Reference plants (solvent check) were sprayed with the diluent only containing 20% by volume of acetone/methanol (1:1) solvent. Treated plants were held in a holding room for three days at approximately 25° C. and ambient relative humidity (RH) prior to grading. Evaluation was conducted by counting the number of live aphids per plant under a microscope. Percent control was measured by using Abbott's correction formula (W. S. Abbott, “A Method of Computing the Effectiveness of an Insecticide,” J. Econ. Entomol. 18 (1925), pp. 265-267) as follows Corrected % Control=100*(X−Y)/X
X=No. of live aphids on solvent check plants and
Y=No. of live aphids on treated plants.
Biological Data for Green Peach Aphid (GPA) (MYZUPE) and Sweetpotato Whitefly-crawler (WF) (BEMITA)” (see Table section).
as §1

Q: What does the source list for `FC(F)(F)c1ccc(-c2cn(-c3cccnc3)nn2)cn1` [Compound F2, 5-[1-(Pyridin-3-yl)-1H-1,2,3-triazol-4-yl]-2-(trifluoromethyl)pyridine]?
A: mortality at 200 ppm [1]: 0 to 80%; mortality at 200 ppm [2]: 80 to 100%

Q: For `FC(F)(F)Oc1cccc(-c2cn(-c3cccnc3)nn2)c1` [Compound F6, 3-(4-(3-(trifluoromethoxy)phenyl)-1H-1,2,3-triazol-1-yl)pyridine], which mortality at 200 ppm [1] is on record?
A: 0 to 80%

Q: And the mortality at 200 ppm [2]?
A: 80 to 100%

Q: Which results are given for `Cc1ccc(-c2cn(-c3cccnc3)nn2)nc1` [Compound F4, 5-Methyl-2-[1-(pyridin-3-yl)-1H-1,2,3-triazol-4-yl]pyridine]?
A: mortality at 200 ppm [1]: 80 to 100%; mortality at 200 ppm [2]: 80 to 100%

Q: Which results are given for `FC(F)(F)c1ccc(-c2cn(-c3cccnc3)nn2)nc1` [Compound F8, 2-[1-(Pyridin-3-yl)-1H-1,2,3-triazol-4-yl]-5-(trifluoromethyl)pyridine]?
A: mortality at 200 ppm [1]: 80 to 100%; mortality at 200 ppm [2]: 80 to 100%

Q: How did the mortality at 200 ppm [1] turn out when `FC(F)(F)c1cccc(-c2cn(-c3cccnc3)nn2)c1` [Compound F13] was run?
A: < 0%

Q: What about the mortality at 200 ppm [2] of the same molecule?
A: 80 to 100%

Q: Which results are given for `Cc1cccc(-c2cn(-c3cccnc3)nn2)n1` [Compound F12, 2-methyl-6-(1-(pyridin-3-yl)-1H-1,2,3-triazol-4-yl)pyridine]?
A: mortality at 200 ppm [1]: 80 to 100%; mortality at 200 ppm [2]: 80 to 100%

Q: For `COc1cccc(-c2cn(-c3cccnc3)nn2)n1` [Compound F5, 2-Methoxy-6-[1-(pyridin-3-yl)-1H-1,2,3-triazol-4-yl]pyridine], which mortality at 200 ppm [1] is on record?
A: 0 to 80%

Q: And the mortality at 200 ppm [2]?
A: 80 to 100%

Q: For `CSc1cccc(-c2cn(-c3cccnc3)nn2)c1` [Compound F3], which mortality at 200 ppm [1] is on record?
A: < 0%

Q: What about the mortality at 200 ppm [2] of the same molecule?
A: 80 to 100%

Q: How did the mortality at 200 ppm [1] turn out when `FC(F)(F)c1cccc(-c2cn(-c3cccnc3)nn2)n1` [Compound F7, 2-[1-(pyridin-3-yl)-1H-1,2,3-triazol-4-yl]-6-(trifluoromethyl) pyridine] was run?
A: 80 to 100%

Q: What about the mortality at 200 ppm [2] of the same molecule?
A: 80 to 100%

Q: How did the mortality at 200 ppm [1] turn out when `Clc1cccc(-c2cn(-c3cccnc3)nn2)c1` [Compound F11] was run?
A: < 0%

Q: And the mortality at 200 ppm [2]?
A: 0 to 80%

Q: With `Clc1cccc(-c2cn(-c3cccnc3)nn2)n1` [Compound F10, 2-Chloro-6-[1-(pyridin-3-yl)-1H-1,2,3-triazol-4-yl]pyridine] as the molecule, how does the mortality at 200 ppm [1] read?
A: 0 to 80%

Q: And the mortality at 200 ppm [2]?
A: 80 to 100%

Q: With `Brc1cccc(-c2cn(-c3cccnc3)nn2)n1` [Compound F9, 2-Bromo-6-[1-(pyridin-3-yl)-1H-1,2,3-triazol-4-yl]pyridine] as the molecule, how does the mortality at 200 ppm [1] read?
A: 0 to 80%

Q: What about the mortality at 200 ppm [2] of the same molecule?
A: 80 to 100%

Q: `Clc1ccccc1-c1cn(-c2cccnc2)nn1` [Compound F1] was tested. Which mortality at 200 ppm [1] did it give?
A: 0 to 80%

Q: And the mortality at 200 ppm [2]?
A: 0 to 80%
